Like-named read-outs stand apart in the source and are kept apart here.
How the values were obtained:
[1] = target: Human factor Xa (Homo sapiens, UniProt P00742)
[2] = target: T1, TF-VIIa (Homo sapiens, UniProt P08709); experiment: TF-VIIa Assay; format: biochemical
T1 construct: 2nM recombinant human factor VIIa; purchased American Diagnostica, Greenwich CT; host or cells: soluble TF made in house in E. coli

[3] = read-out: IC50 or % Inhibition TF-VIIa (30 µM); cells given as a plain number (IC50)
[4] = cells given as a plain number (IC50); read-out: IC50 or % Inhibition TF-VIIa (30 µM)
[5] = read-out: IC50 or % Inhibition TF-VIIa (30 µM); cells without % sign: IC50

Chain of Human factor Xa (P00742 235-488 limits assumed): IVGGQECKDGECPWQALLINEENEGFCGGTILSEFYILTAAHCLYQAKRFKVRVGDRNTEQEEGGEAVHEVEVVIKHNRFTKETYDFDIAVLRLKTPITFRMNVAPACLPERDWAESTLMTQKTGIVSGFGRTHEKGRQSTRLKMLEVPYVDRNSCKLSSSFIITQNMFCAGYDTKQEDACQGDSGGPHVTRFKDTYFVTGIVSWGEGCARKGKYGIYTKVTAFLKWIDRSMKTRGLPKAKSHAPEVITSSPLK
Chain of Human factor Xa (P00742 41-179 limits assumed): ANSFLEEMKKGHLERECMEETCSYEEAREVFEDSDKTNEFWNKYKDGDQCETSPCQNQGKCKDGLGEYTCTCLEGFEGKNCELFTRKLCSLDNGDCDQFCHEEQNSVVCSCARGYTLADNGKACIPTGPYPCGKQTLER
T1 sequence (P08709 213-466 limits assumed): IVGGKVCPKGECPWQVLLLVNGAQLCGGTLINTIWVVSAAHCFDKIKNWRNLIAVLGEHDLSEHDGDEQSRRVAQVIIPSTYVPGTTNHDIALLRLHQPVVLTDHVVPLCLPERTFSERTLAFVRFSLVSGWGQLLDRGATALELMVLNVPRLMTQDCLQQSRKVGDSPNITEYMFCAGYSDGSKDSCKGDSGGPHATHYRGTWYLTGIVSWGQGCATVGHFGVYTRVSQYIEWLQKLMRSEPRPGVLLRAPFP
T1 sequence (P08709 61-212 limits assumed): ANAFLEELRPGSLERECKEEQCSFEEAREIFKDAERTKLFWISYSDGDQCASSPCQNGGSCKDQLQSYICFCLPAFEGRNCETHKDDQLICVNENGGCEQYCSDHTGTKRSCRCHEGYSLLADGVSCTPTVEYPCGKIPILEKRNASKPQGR
T1 sequence (P13726 33-251 partner limits assumed): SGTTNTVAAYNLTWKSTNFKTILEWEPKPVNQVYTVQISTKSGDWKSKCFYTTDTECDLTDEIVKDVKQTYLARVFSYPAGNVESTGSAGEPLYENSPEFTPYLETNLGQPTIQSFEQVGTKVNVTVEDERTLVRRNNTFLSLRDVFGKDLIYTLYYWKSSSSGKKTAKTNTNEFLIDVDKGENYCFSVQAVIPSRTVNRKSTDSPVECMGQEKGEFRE

SMILES	IC50 or % Inhibition Factor Xa (30 µM) [1] [%]	IC50 [2, 3] [µM]	other results
COc1cccc(CNc2nc(Cl)c(-c3ccccc3)n(CC(=O)NCc3ccc(C(=N)N)cc3)c2=O)c1OC [1512-02]	3	19.2	–
COc1ccc(CCNc2nc(Cl)c(-c3ccccc3)n(CC(=O)NCc3ccc(C(=N)N)cc3)c2=O)cc1OC [1512-05]	10	16.7	–
N=C(N)c1ccc(CNC(=O)Cn2c(-c3ccccc3)c(Cl)nc(NCCCc3ccccc3)c2=O)cc1 [1512-06]	4	–	IC50 [2, 4]: 12.6 µM
CCOc1ccccc1CNc1nc(Cl)c(-c2ccccc2)n(CC(=O)NCc2ccc(C(=N)N)cc2)c1=O [1512-11]	5	30	–
CCCCC(CC)Nc1nc(Cl)c(-c2ccccc2)n(CC(=O)NCc2ccc(C(=N)N)cc2)c1=O (stereo not drawn) [1512-12]	5	11.3	–
CN(C)CCNc1nc(Cl)c(-c2ccccc2)n(CC(=O)NCc2ccc(C(=N)N)cc2)c1=O [1512-15]	6	–	IC50 [2, 4]: 20.9 µM
CC1CCCC(Nc2nc(Cl)c(-c3ccccc3)n(CC(=O)NCc3ccc(C(=N)N)cc3)c2=O)C1C (stereo not drawn) [1512-23]	6	14.6	–
N=C(N)c1ccc(CNC(=O)Cn2c(-c3ccccc3)c(Cl)nc(NCc3ccc(C(F)(F)F)cc3F)c2=O)cc1 [1512-26]	5	26.9	–
N=C(N)c1ccc(CNC(=O)Cn2c(-c3ccccc3)c(Cl)nc(NCc3cc(C(F)(F)F)ccc3F)c2=O)cc1 [1512-27]	3	16.5	–
N=C(N)c1ccc(CNC(=O)Cn2c(-c3ccccc3)c(Cl)nc(NCc3cc(F)cc(C(F)(F)F)c3)c2=O)cc1 [1512-29]	4	–	IC50 or % Inhibition TF-VIIa (30 µM) [2]: 47%
Cc1cccc(Cl)c1CNc1nc(Cl)c(-c2ccccc2)n(CC(=O)NCc2ccc(C(=N)N)cc2)c1=O [1512-31]	14	–	IC50 or % Inhibition TF-VIIa (30 µM) [2]: 43%
N=C(N)c1ccc(CNC(=O)Cn2c(-c3ccccc3)c(Cl)nc(NCc3cc(F)c(F)c(F)c3)c2=O)cc1 [1512-32]	5	21.9	–
N=C(N)c1ccc(CNC(=O)Cn2c(-c3ccccc3)c(Cl)nc(NCc3cc(Cl)ccc3Cl)c2=O)cc1 [1512-35]	4	22.5	–
N=C(N)c1ccc(CNC(=O)Cn2c(-c3ccccc3)c(Cl)nc(NCc3cc(F)ccc3F)c2=O)cc1 [1512-36]	9	–	IC50 [2, 4]: 3.8 µM
N=C(N)c1ccc(CNC(=O)Cn2c(-c3ccccc3)c(Cl)nc(NCc3cc(F)cc(F)c3)c2=O)cc1 [1512-39]	4	–	IC50 [2, 4]: 6 µM
N=C(N)c1ccc(CNC(=O)Cn2c(-c3ccccc3)c(Cl)nc(NCc3cccc(OC(F)(F)F)c3)c2=O)cc1 [1512-40]	3	–	IC50 or % Inhibition TF-VIIa (30 µM) [2]: 40%
N=C(N)c1ccc(CNC(=O)Cn2c(-c3ccccc3)c(Cl)nc(NCCc3cccc(C(F)(F)F)c3)c2=O)cc1 [1512-41]	4	–	IC50 [2, 4]: 30 µM
N=C(N)c1ccc(CNC(=O)Cn2c(-c3ccccc3)c(Cl)nc(NCc3ccccc3OC(F)(F)F)c2=O)cc1 [1512-42]	1	25	–
N=C(N)c1ccc(CNC(=O)Cn2c(-c3ccccc3)c(Cl)nc(NCc3c(F)cccc3F)c2=O)cc1 [1512-43]	9	11	–
N=C(N)c1ccc(CNC(=O)Cn2c(-c3ccccc3)c(Cl)nc(NCc3c(F)cccc3C(F)(F)F)c2=O)cc1 [1512-44]	6	–	IC50 or % Inhibition TF-VIIa (30 µM) [2]: 43%
Cc1cc(Cl)cc(Cl)c1CNc1nc(Cl)c(-c2ccccc2)n(CC(=O)NCc2ccc(C(=N)N)cc2)c1=O [1512-45]	11	–	IC50 or % Inhibition TF-VIIa (30 µM) [2]: 27%
CN1CCCC1CCNc1nc(Cl)c(-c2ccccc2)n(CC(=O)NCc2ccc(C(=N)N)cc2)c1=O (stereo not drawn) [1512-46]	10	11.7	–
N=C(N)c1ccc(CNC(=O)Cn2c(-c3ccccc3)c(Cl)nc(NCCc3ccccn3)c2=O)cc1 [1512-47]	13	3.5	–
N=C(N)c1ccc(CNC(=O)Cn2c(-c3ccsc3)c(Cl)nc(NCc3ccccc3)c2=O)cc1 [1517-01]	0	1.2	–
C[C@@H](C(=O)NCc1ccc(C(=N)N)cc1)n1c(-c2ccccc2)c(Cl)nc(NCc2ccccc2)c1=O [1517-03]	0	9	–
CSCC(C(=O)NCc1ccc(C(=N)N)cc1)n1c(-c2ccccc2)c(Cl)nc(NCc2ccccc2)c1=O (stereo not drawn) [1517-04]	0	5.7	–
C[C@H](C(=O)NCc1ccc(C(=N)N)cc1)n1c(-c2ccccc2)c(Cl)nc(NCc2ccccc2)c1=O [1517-05]	0	4.6	–

SMILES	IC50 or % Inhibition Factor Xa (30 µM) [1] [%]	IC50 [2, 3] [µM]	other results
N=C(N)c1ccc(CNC(=O)Cn2c(-c3c(Cl)cccc3Cl)c(Cl)nc(NCc3ccccc3)c2=O)cc1 [1517-06]	0	2.5	–
N=C(N)c1ccc(CNC(=O)Cn2c(-c3ccsc3)c(Cl)nc(NC3CCC3)c2=O)cc1 [1517-07]	0	0.4	–
N=C(N)c1ccc(CNC(=O)C(Cc2ccccc2)n2c(-c3ccccc3)c(Cl)nc(NC3CCC3)c2=O)cc1 (stereo not drawn) [1517-08]	0	–	IC50 or % Inhibition TF-VIIa (30 µM) [2]: 43%
C[C@@H](C(=O)NCc1ccc(C(=N)N)cc1)n1c(-c2ccccc2)c(Cl)nc(NC2CCC2)c1=O [1517-09]	0	2.6	–
CSCC(C(=O)NCc1ccc(C(=N)N)cc1)n1c(-c2ccccc2)c(Cl)nc(NC2CCC2)c1=O (stereo not drawn) [1517-10]	0	2	–
C[C@H](C(=O)NCc1ccc(C(=N)N)cc1)n1c(-c2ccccc2)c(Cl)nc(NC2CCC2)c1=O [1517-11]	0	3	–
N=C(N)c1ccc(CNC(=O)Cn2c(-c3c(Cl)cccc3Cl)c(Cl)nc(NC3CCC3)c2=O)cc1 [1517-12]	0	0.8	–
N=C(N)c1ccc(CNC(=O)Cn2c(-c3ccsc3)c(Cl)nc(NCCc3ccccc3)c2=O)cc1 [1517-13]	0	0.6	–
N=C(N)c1ccc(CNC(=O)C(Cc2ccccc2)n2c(-c3ccccc3)c(Cl)nc(NCCc3ccccc3)c2=O)cc1 (stereo not drawn) [1517-14]	0	–	IC50 or % Inhibition TF-VIIa (30 µM) [2]: 30%
C[C@@H](C(=O)NCc1ccc(C(=N)N)cc1)n1c(-c2ccccc2)c(Cl)nc(NCCc2ccccc2)c1=O [1517-15]	0	3.1	–
CSCC(C(=O)NCc1ccc(C(=N)N)cc1)n1c(-c2ccccc2)c(Cl)nc(NCCc2ccccc2)c1=O (stereo not drawn) [1517-16]	0	3.4	–
C[C@H](C(=O)NCc1ccc(C(=N)N)cc1)n1c(-c2ccccc2)c(Cl)nc(NCCc2ccccc2)c1=O [1517-17]	0	1.8	–
N=C(N)c1ccc(CNC(=O)Cn2c(-c3c(Cl)cccc3Cl)c(Cl)nc(NCCc3ccccc3)c2=O)cc1 [1517-18]	0	1.3	–
N=C(N)c1ccc(CNC(=O)Cn2c(-c3ccsc3)c(Cl)nc(NCCc3cccc(Cl)c3)c2=O)cc1 [1517-19]	0	0.9	–
N=C(N)c1ccc(CNC(=O)C(Cc2ccccc2)n2c(-c3ccccc3)c(Cl)nc(NCCc3cccc(Cl)c3)c2=O)cc1 (stereo not drawn) [1517-20]	0	–	IC50 or % Inhibition TF-VIIa (30 µM) [2]: 22%
C[C@H](C(=O)NCc1ccc(C(=N)N)cc1)n1c(-c2ccccc2)c(Cl)nc(NCCc2cccc(Cl)c2)c1=O [1517-23]	0	2.3	–
N=C(N)c1ccc(CNC(=O)Cn2c(-c3c(Cl)cccc3Cl)c(Cl)nc(NCCc3cccc(Cl)c3)c2=O)cc1 [1517-24]	0	1.8	–
N=C(N)c1ccc(CNC(=O)Cn2c(-c3ccccc3)c(Cl)nc(NC3CCCCC3)c2=O)cc1 [1517-25]	0	–	IC50 [2, 4]: 1.4 µM
CCCC(CCC)Nc1nc(Cl)c(-c2ccccc2)n(CC(=O)NCc2ccc(C(=N)N)cc2)c1=O [1517-26]	0	–	IC50 [2, 4]: 1.8 µM
CC(C)N(C)c1nc(Cl)c(-c2ccccc2)n(CC(=O)NCc2ccc(C(=N)N)cc2)c1=O [1517-31]	0	–	IC50 [2, 4]: 9.1 µM
CCCNc1nc(Cl)c(-c2ccccc2)n(CC(=O)NCc2ccc(C(=N)N)cc2)c1=O [1517-33]	0	–	IC50 [2, 4]: 0.4 µM
C[Si](C)(C)CNc1nc(Cl)c(-c2ccccc2)n(CC(=O)NCc2ccc(C(=N)N)cc2)c1=O [1517-36]	0	3	–
N=C(N)c1ccc(CNC(=O)Cn2c(-c3ccccc3)c(Cl)nc(NCC3CC3)c2=O)cc1 [1517-43]	0	–	IC50 or % Inhibition TF-VIIa (30 µM) [2]: 25%
CCCCCNc1nc(Cl)c(-c2ccccc2)n(CC(=O)NCc2ccc(C(=N)N)cc2)c1=O [1517-48]	0	1.2	–
N=C(N)c1ccc(CNC(=O)Cn2c(-c3cccc(N)c3)c(Cl)nc(NCCN3CCCC3)c2=O)cc1 [1543-03]	34	–	IC50 [2, 5]: 0.64 µM
CNc1nc(Cl)c(-c2cccc(N)c2)n(CC(=O)NCc2ccc(C(=N)N)cc2)c1=O [1543-05]	14	–	IC50 ([2]; cells without % sign: IC50; read-out: IC50 or % Inhibition TF-VIIa (30 µM)): 0.06 µM
N=C(N)c1ccc(CNC(=O)Cn2c(-c3cccc(N)c3)c(Cl)nc(NCCCn3ccnc3)c2=O)cc1 [1543-07]	19	–	IC50 [2, 5]: 0.21 µM

From patent EP1202975B1, “SUBSTITUTED POLYCYCLIC ARYL AND HETEROARYL PYRAZINONES USEFUL FOR SELECTIVE INHIBITION OF THE COAGULATION CASCADE” (Pharmacia Corporation, priority 1999, dated 2000)
